Data: US20260118345A1, “METHOD OF EVALUATING INTERCELLULAR INTERACTIONS IN NEUROINFLAMMATION” (FUJIFILM Corporation, priority 2023, published 2026)

Tested on: NF-κB
Assay: NF-κB localization after LPS stimulation, three-cell-type co-culture containing about 0.11% microglia
Assay type: cell-based, human
Settings: proportion of microglia about 0.11%
Description: The amount of cells required for the activated microglia to affect other cells was examined. Two-dimensional three-cell-type co-cultures of astrocytes, neurons, and microglia in which the proportion of the microglia was about 11%, 1.1%, and 0.11% were produced by the same method as in <1> of Test Example 1. In addition, the cells were subjected to LPS stimulation and fixed by the same method as in <1> of Test Example 1. Furthermore, the localization of NF-κB was evaluated by the same method as in <1> of Test Example 1.

Substance: lipopolysaccharide [LPS]
- nuclear translocation of NF-κB (1 hour after the LPS treatment): only some cells
- nuclear translocation of NF-κB (3 hours and 6 hours after the LPS treatment): many cells
